Structures can show the parent of a compound that is named as a salt.

Sequence of NLRP3 (Q96P20 whole entry): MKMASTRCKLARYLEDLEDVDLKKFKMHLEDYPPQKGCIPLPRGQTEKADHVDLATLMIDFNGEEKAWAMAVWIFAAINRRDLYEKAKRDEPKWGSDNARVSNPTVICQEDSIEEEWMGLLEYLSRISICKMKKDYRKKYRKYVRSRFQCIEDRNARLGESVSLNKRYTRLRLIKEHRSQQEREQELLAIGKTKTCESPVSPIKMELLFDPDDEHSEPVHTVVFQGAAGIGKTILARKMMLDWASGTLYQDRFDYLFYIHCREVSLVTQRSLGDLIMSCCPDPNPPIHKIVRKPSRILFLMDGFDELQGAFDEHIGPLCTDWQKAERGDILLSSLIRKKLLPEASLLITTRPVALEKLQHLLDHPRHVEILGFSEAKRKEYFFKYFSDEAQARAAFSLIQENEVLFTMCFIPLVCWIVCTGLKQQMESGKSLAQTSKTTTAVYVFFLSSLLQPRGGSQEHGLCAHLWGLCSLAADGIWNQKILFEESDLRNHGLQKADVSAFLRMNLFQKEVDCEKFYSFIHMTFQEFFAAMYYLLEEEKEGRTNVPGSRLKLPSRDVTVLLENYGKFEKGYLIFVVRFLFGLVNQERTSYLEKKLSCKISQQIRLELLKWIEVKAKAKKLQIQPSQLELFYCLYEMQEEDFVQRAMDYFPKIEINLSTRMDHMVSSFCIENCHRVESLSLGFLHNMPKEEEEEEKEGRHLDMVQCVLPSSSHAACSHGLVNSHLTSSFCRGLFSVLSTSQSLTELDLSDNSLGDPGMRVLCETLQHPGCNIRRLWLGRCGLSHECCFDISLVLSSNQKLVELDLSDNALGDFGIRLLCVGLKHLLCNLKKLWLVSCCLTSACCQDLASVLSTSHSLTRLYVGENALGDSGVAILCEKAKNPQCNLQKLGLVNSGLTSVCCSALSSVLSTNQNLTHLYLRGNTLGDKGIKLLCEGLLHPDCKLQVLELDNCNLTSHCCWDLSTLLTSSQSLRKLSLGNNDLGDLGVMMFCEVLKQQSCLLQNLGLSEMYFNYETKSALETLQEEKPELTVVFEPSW

The target of this test is NLRP3 (Homo sapiens, UniProt Q96P20). Nature of the test: THP-1 cells pyroptosis assay (LPS + nigericin, resazurin read-out). The settings on record: NLRP3 inhibitory activity, 1 μg/ml LPS, 5 μM nigericin. In kind it is cell-based. More on the design: Seed THP-1 cells (25,000 cells/well) containing 1.0 μg/ml LPS; host or cells: THP-1 cells. As to the method:
The cells were routinely passaged and grown to confluency (˜10^6 cells/ml). On the day of the experiment, THP-1 cells were harvested and resuspended into RPMI medium (without FBS). The cells were then counted and viability (>90%) checked by Trypan blue (Sigma #T8154). […] To this diluted cell solution was added LPS (Sigma #L4524) to give a 1 μg/ml Final Assay Concentration (FAC). 40 μl of the final preparation was aliquoted into each well of a 96-well plate. The plate thus prepared was used for compound screening. The following method step-by-step assay was followed for compound screening. • 1. […] Incubate for 3 hrs at 37° C., 5% CO2 • 4. Add 5 μl nigericin (Sigma #N7143) (FAC 5 μM) to all wells • 5. Incubate for 1 hr at 37° C., 5% CO2 • 6. At the end of the incubation period, spin plates at 300×g for 3 mins and remove supernatant • 7. Then add 50 μl of resazurin (Sigma #R7017) (FAC 100 μM resazurin in RPMI medium without FBS) and incubate plates for a further 1-2 hrs at 37° C. and 5% CO2 • 8.
With `CC(C)c1cc(F)cc2c1C(C(=O)NS(=O)(=O)c1cc(C(C)(C)O)cs1)CC2(C)C` (single isomer, unassigned) [Example 9, 5-Fluoro-N-((4-(2-hydroxypropan-2-yl)thiophen-2-yl)sulfonyl)-7-isopropyl-3,3-dimethyl-2,3-dihydro-1H-indene-1-carboxamide, potassium salt (rotamer P2)], the IC50 fell in the range of 5 to 10 µM.
With `Cc1cc(C(C)(C)O)ccc1S(=O)(=O)NC(=O)C1CC(C)(C)c2cc(F)cc(C(C)C)c21` (stereo not drawn) [Example 1, 5-Fluoro-N-((4-(2-hydroxypropan-2-yl)-2-methylphenyl)sulfonyl)-7-isopropyl-3,3-dimethyl-2,3-dihydro-1H-indene-1-carboxamide] the figure was 5 to 10 µM; with `COc1cc(-c2cc(F)cc(C(C)C)c2CCC(=O)NS(=O)(=O)c2ccc(CN(C)C)cc2)ccn1` [Example 4, N-((4-((Dimethylamino)methyl)phenyl)sulfonyl)-3-(4-fluoro-2-isopropyl-6-(2-methoxypyridin-4-yl)phenyl)propanamide, potassium salt], 5 to 10 µM; with `COc1cc(-c2cc(F)cc(C(C)C)c2CCC(=O)NS(=O)(=O)c2cc(C(C)(C)O)cs2)ccn1` [Example 5, 3-(4-Fluoro-2-isopropyl-6-(2-methoxypyridin-4-yl)phenyl)-N-((4-(2-hydroxypropan-2-yl)thiophen-2-yl)sulfonyl)propanamide], 5 to 10 µM.
As for `CC(C)c1cc(F)cc2c1C(C(=O)NS(=O)(=O)c1cnn(C3CC3)c1)CC2(C)C` (stereo not drawn) [Example 7, N-((1-Cyclopropyl-1H-pyrazol-4-yl)sulfonyl)-5-fluoro-7-isopropyl-3,3-dimethyl-2,3-dihydro-1H-indene-1-carboxamide], the IC50 lay in the range of 5 to 10 µM.
Under `CC(C)c1cc(F)cc2c1C(C(=O)NS(=O)(=O)c1ccn(C(C)C)n1)CC2(C)C` (stereo not drawn) [Example 10, 5-Fluoro-7-isopropyl-N-((1-isopropyl-1H-pyrazol-3-yl)sulfonyl)-3,3-dimethyl-2,3-dihydro-1H-indene-1-carboxamide, potassium salt (rotamer P2)] stands 5 to 10 µM; under `CC(C)c1cc(F)cc2c1C(C(=O)NS(=O)(=O)c1cc(C(=O)N(C)C)n(C)n1)CC2(C)C` (stereo not drawn) [Example 11, 3-(N-(5-Fluoro-7-isopropyl-3,3-dimethyl-2,3-dihydro-1H-indene-1-carbonyl)sulfamoyl)-N,N,1-trimethyl-1H-pyrazole-5-carboxamide], 5 to 10 µM; under `CC(C)(C)OC(=O)NC/C(=C\F)COc1ccc(S(=O)(=O)NC(=O)Nc2c3c(cc4c2CCC4)CCC3)cc1` [Example 18, tert-Butyl-(3-fluoro-2-((4-(N-((1,2,3,5,6,7-hexahydro-s-indacen-4-yl)carbamoyl)sulfamoyl)phenoxy)methyl)allyl)carbamate, potassium salt], 1 to 5 µM.
With `COc1cc(-c2ccc3c(c2NC(=O)N[S+]([O-])c2ccn(C(C)C)n2)CCC3)ccn1` (stereo not drawn) [Example 23, 1-Isopropyl-N-((5-(2-methoxypyridin-4-yl)-2,3-dihydro-1H-inden-4-yl)carbamoyl)-1H-pyrazole-3-sulfinamide] the figure was 1 to 5 µM.
Under `COc1cc(-c2ccc3c(c2CC(=O)NS(=N)(=O)C2CN(C(C)C)C2)CCC3)ccn1` (stereo not drawn) [Example 25, N-(1-Isopropylazetidine-3-sulfonimidoyl)-2-(5-(2-methoxypyridin-4-yl)-2,3-dihydro-1H-inden-4-yl)acetamide] stands 5 to 10 µM; under `CC(C)c1cc(F)cc(C(C)C)c1CC(=O)NS(=O)(=O)c1ccn(C(C)C)n1` [Example 26, 2-(4-Fluoro-2,6-diisopropylphenyl)-N-((1-isopropyl-1H-pyrazol-3-yl)sulfonyl)acetamide], 1 to 5 µM.
On to `CC(C)c1cc(F)cc(C(C)C)c1CC(=O)NS(=O)(=O)c1cnc(C(C)(C)O)s1` [Example 27, 2-(4-Fluoro-2,6-diisopropylphenyl)-N-((2-(2-hydroxypropan-2-yl)thiazol-5-yl)sulfonyl)acetamide], for which the IC50 lay in the range of 1 to 5 µM.
For the compound `CC(C)c1cc(F)cc(C(C)C)c1CC(=O)NS(=O)(=O)c1cc(C(C)(C)O)n(C(C)C)n1` [Example 29, 2-(4-Fluoro-2,6-diisopropylphenyl)-N-((5-(2-hydroxypropan-2-yl)-1-isopropyl-1H-pyrazol-3-yl)sulfonyl)acetamide], the IC50 lay in the range of 5 to 10 µM.
Consider `CC(C)c1cc(F)cc(C(C)C)c1CC(=O)NS(=O)(=O)c1ncc(C(C)(C)O)s1` [Example 30, 2-(4-Fluoro-2,6-diisopropylphenyl)-N-((5-(2-hydroxypropan-2-yl)thiazol-2-yl)sulfonyl)acetamide], for which the IC50 was 1 to 5 µM.
Under `CC(C)c1cc(F)cc(C(C)C)c1CC(=O)NS(=O)(=O)c1cc(C(C)(C)O)n(C)n1` [Example 32, 2-(4-Fluoro-2,6-diisopropylphenyl)-N-((5-(2-hydroxypropan-2-yl)-1-methyl-1H-pyrazol-3-yl)sulfonyl)acetamide, ammonium salt] stands 1 to 5 µM; under `CC(C)n1ccc(S(=O)(=O)NC(=O)Nc2c3c(c(C#N)c4c2CCC4)CCC3)n1` [Example 37, N-((8-Cyano-1,2,3,5,6,7-hexahydro-s-indacen-4-yl)carbamoyl)-1-isopropyl-1H-pyrazole-3-sulfonamide], 0.25 to 0.5 µM; under `CC(C)n1ccc(S(=O)(=O)NC(=O)Nc2c3c(c(Br)c4c2CCC4)CCC3)n1` [Example 38, N-((8-Bromo-1,2,3,5,6,7-hexahydro-s-indacen-4-yl)carbamoyl)-1-isopropyl-1H-pyrazole-3-sulfonamide], below 0.25 µM.
With `Cc1nn(C(C)C)cc1S(=O)(=O)NC(=O)Nc1c2c(cc3c1CCC3)CCC2` [Example 43, N-((1,2,3,5,6,7-Hexahydro-s-indacen-4-yl)carbamoyl)-1-isopropyl-3-methyl-1H-pyrazole-4-sulfonamide, sodium salt] the figure was 0.25 to 0.5 µM; with `O=C(Nc1c2c(cc3c1CCC3)CCC2)NS(=O)(=O)c1cnn(CC2CC2)c1` [Example 44, 1-(Cyclopropylmethyl)-N-((1,2,3,5,6,7-hexahydro-s-indacen-4-yl)carbamoyl)-1H-pyrazole-4-sulfonamide, sodium salt], below 0.25 µM; with `CC(C)c1cc(F)cc(C(C)C)c1NC(=O)NS(=O)(=O)c1cc(C(C)(C)O)n(C(C)C)n1` [Example 50, N-((4-Fluoro-2,6-diisopropylphenyl)carbamoyl)-5-(2-hydroxypropan-2-yl)-1-isopropyl-1H-pyrazole-3-sulfonamide], 0.25 to 0.5 µM.
Under `CC(C)c1cccc(C(C)C)c1NC(=O)NS(=O)(=O)c1ccn(C(C)C)n1` [Example 68, N-((2,6-Diisopropylphenyl)carbamoyl)-1-isopropyl-1H-pyrazole-3-sulfonamide, sodium salt] stands 1 to 5 µM; under `CC(C)c1cc(F)cc(C(F)(F)F)c1NC(=O)NS(=O)(=O)c1ccn(C(C)C)n1` [Example 70, N-((4-Fluoro-2-isopropyl-6-(trifluoromethyl)phenyl)carbamoyl)-1-isopropyl-1H-pyrazole-3-sulfonamide], 5 to 10 µM.
For `CC(C)c1cc(-c2ccccc2)cc(C(C)C)c1NC(=O)NS(=O)(=O)c1ccn(C(C)C)n1` [Example 73, N-((3,5-Diisopropyl-[1,1′-biphenyl]-4-yl)carbamoyl)-1-isopropyl-1H-pyrazole-3-sulfonamide], the IC50 was 5 to 10 µM.
With `CC(O)c1cc(S(=O)(=O)NC(=O)Nc2c3c(cc4c2CCC4)CCC3)nn1C` (stereo not drawn) [Example 74, N-((1,2,3,5,6,7-Hexahydro-s-indacen-4-yl)carbamoyl)-5-(1-hydroxyethyl)-1-methyl-1H-pyrazole-3-sulfonamide] the figure was 0.5 to 1 µM; with `CC(C)c1cc(C#N)cc(C(C)C)c1NC(=O)NS(=O)(=O)c1cnn(C(C)C)c1` [Example 75, N-((4-Cyano-2,6-diisopropylphenyl)carbamoyl)-1-isopropyl-1H-pyrazole-4-sulfonamide], 1 to 5 µM.
Under `CC(C)c1cccc(C(C)C)c1NC(=O)NS(=O)(=O)c1cnn(CC(F)(F)F)c1` [Example 76, N-((2,6-Diisopropylphenyl)carbamoyl)-1-(2,2,2-trifluoroethyl)-1H-pyrazole-4-sulfonamide] stands 5 to 10 µM; under `CC(C)c1cc(F)cc(C(C)C)c1NC(=O)NS(=O)(=O)c1ccn(CC(F)(F)F)n1` [Example 78, N-((4-Fluoro-2,6-diisopropylphenyl)carbamoyl)-1-(2,2,2-trifluoroethyl)-1H-pyrazole-3-sulfonamide, sodium salt], 1 to 5 µM.
Consider `CCOC(=O)c1cc(S(=O)(=O)NC(=O)Nc2c3c(cc4c2CCC4)CCC3)nn1C` [Example 79, Ethyl 3-(N-((1,2,3,5,6,7-hexahydro-s-indacen-4-yl)carbamoyl)sulfamoyl)-1-methyl-1H-pyrazole-5-carboxylate], for which the IC50 was 0.5 to 1 µM.
With `Cc1nn(C)cc1S(=O)(=O)NC(=O)Nc1c2c(cc3c1CCC3)CCC2` [Example 80, N-((1,2,3,5,6,7-Hexahydro-s-indacen-4-yl)carbamoyl)-1,3-dimethyl-1H-pyrazole-4-sulfonamide, sodium salt] the figure was 0.5 to 1 µM.
Under `CC(C)c1cccc(O[C@@H]2CCOC2)c1NC(=O)NS(=O)(=O)c1ccn(C(C)C)n1` [Example 85, (R)-1-Isopropyl-N-((2-isopropyl-6-((tetrahydrofuran-3-yl)oxy)phenyl)carbamoyl)-1H-pyrazole-3-sulfonamide] stands 5 to 10 µM.

These data come from patent US20220106289A1, “NLRP3 INHIBITORS” (INFLAZOME LIMITED, priority 2018, published 2022).
